Columns and labels:
[1] = target: human Maxi K channel (BK channel), KCNMA1 (KCa1.1) and beta1 (KCNMB1) subunits (Homo sapiens, UniProt Q12791)
Protocol: In Vitro Assay: Agonistic Activity at the Human Maxi K Channel (BK Channel)
A CHO K1 cell line was stably transfected with the KCNMA1 (KCa1.1, U11058) and beta1 (KCNMB1) subunits of the human Maxi K channel (Ponte et al, Molecular Pharmacology 2012, 81(4), 567-577).
Cells were seeded in microtiter plates (black 384-well MTP, clear bottom) in a concentration of 10,000 cells/well in 25 μl medium and cultured for 20 to 24 hours at 37° C. and 5% CO2. The cell medium was removed, and the cells washed with Tyrode's solution. 25 μl of FMP-dye Blue-Tyrode's was added to each well and incubated at room temperature for 30 min.
(§1) For the membrane potential measurements, the prepared cell plate and substance plate were placed in the FLIPR Tetra (Molecular Devices). The baseline measurement of the fluorescence was stared for 20 sec (Exc. 510-545 nm, Emm. 565-625 nm). The cells were depolarized by addition of 25 μl of the diluted test compounds (final assay concentration of the KCl-Tyrode: 70 mM KCl, 2 mM CaCl2, 1 mM MgCl2, 0.8 mM NaH2PO4, 5 mM Glucose, 28 mM Hepes, pH 7.4, including the voltage sensitive dye). The complete measurement takes 150 s.
(§2) EC50 values were determined in triplicate utilizing compound dilution series. The data were determined at least in two independent tests. The data were proceeded by using the ActivityBase XE Runner software (IDBS) for curve fitting and calculation of the half-maximal effective concentration.

[2] = target: Caenorhabditis elegans slo-1a (Caenorhabditis elegans, UniProt Q95V25)
Protocol: In Vitro Assay: Agonistic Activity at C. elegans Slo-1a
A CHO K1 cell line stably transfected with the Caenorhabditis elegans slo-1a (accession no Y51A2D.19a) was established. Cells were seeded in microtiter plates (black 384-well MTP, clear bottom) in a concentration of 10,000 cells/well in 25 μl medium and cultured for 20 to 24 hours at 37° C. and 5% CO2. The cell medium was removed, and the cells washed with Tyrode's solution. 25 μl of FMP-dye Blue-Tyrode's was added to each well and incubated at room temperature for 30 min.
as §1, §2

[3] = tested on: Oesophagostomum dentatum (nodular worm of swine), larval stage 3; assay: In vitro assay: Oesophagostomum dentatum L3 larvae, minimum effective concentration; details: in Sus scrofa, read-out: MEC (minimum effective concentration) against Oesophagostomum dentatum L3, L3 larvae, 20 per well, microscopic examination, concentration at which at least one larva shows mortality, change in motility or development
Description: (§3) In Vitro Assay: Ascaridia galli and Oesophagostomum dentatum
(§4) Ascaridia galli (intestinal roundworm of chicken), larval stage 3 (“L3”); and Oesophagostomum dentatum (nodular worm of swine), larval stages 3 and 4 (respectively “L3” and “L4”) where suspended in a nutrient medium and distributed to 96 well plates with 20 larvae per well. The wells were spiked with DMSO solutions of the compounds with declining concentration.

D. immitis microfilaria = assay: In vitro assay: Dirofilaria immitis L1 (microfilaria) motility; assay type: cell-based; details: 72 h, read-out: EC50 value, Dirofilaria immitis L1, approximately 500 microfilaria, 3 days incubation, reduction in motility vs DMSO, duplicates
A. viteae microfilaria = assay: In vitro assay: Acanthocheilonema viteae L1 (microfilaria) motility; details: 72 h, read-out: EC50 value, Acanthocheilonema viteae L1, approximately 500 microfilaria, 3 days incubation, reduction in motility vs DMSO, duplicates
Protocol: In Vitro Assay: Acanthocheilonema viteae L1
Approximately 500 A. viteae microfilaria were added to a microtiter plate containing a nutrient medium and the test compound in DMSO at varying concentrations. After incubation for 3 days, activity was evaluated as reduction in motility as compared to DMSO as negative control. Compounds were tested in duplicates. Based on the concentration response curves EC50 values were calculated.

[4] = tested on: Oesophagostomum dentatum (nodular worm of swine), larval stage 4; assay: In vitro assay: Oesophagostomum dentatum L4 larvae, minimum effective concentration; details: in Sus scrofa, read-out: MEC (minimum effective concentration) against Oesophagostomum dentatum L4, L4 larvae, 20 per well, microscopic examination, concentration at which at least one larva shows mortality, change in motility or development
Description: as §3, §4

Chain of human Maxi K channel (BK channel), KCNMA1 (KCa1.1) and beta1 (KCNMB1) subunits (Q12791 1-1178 isoform Q12791-5): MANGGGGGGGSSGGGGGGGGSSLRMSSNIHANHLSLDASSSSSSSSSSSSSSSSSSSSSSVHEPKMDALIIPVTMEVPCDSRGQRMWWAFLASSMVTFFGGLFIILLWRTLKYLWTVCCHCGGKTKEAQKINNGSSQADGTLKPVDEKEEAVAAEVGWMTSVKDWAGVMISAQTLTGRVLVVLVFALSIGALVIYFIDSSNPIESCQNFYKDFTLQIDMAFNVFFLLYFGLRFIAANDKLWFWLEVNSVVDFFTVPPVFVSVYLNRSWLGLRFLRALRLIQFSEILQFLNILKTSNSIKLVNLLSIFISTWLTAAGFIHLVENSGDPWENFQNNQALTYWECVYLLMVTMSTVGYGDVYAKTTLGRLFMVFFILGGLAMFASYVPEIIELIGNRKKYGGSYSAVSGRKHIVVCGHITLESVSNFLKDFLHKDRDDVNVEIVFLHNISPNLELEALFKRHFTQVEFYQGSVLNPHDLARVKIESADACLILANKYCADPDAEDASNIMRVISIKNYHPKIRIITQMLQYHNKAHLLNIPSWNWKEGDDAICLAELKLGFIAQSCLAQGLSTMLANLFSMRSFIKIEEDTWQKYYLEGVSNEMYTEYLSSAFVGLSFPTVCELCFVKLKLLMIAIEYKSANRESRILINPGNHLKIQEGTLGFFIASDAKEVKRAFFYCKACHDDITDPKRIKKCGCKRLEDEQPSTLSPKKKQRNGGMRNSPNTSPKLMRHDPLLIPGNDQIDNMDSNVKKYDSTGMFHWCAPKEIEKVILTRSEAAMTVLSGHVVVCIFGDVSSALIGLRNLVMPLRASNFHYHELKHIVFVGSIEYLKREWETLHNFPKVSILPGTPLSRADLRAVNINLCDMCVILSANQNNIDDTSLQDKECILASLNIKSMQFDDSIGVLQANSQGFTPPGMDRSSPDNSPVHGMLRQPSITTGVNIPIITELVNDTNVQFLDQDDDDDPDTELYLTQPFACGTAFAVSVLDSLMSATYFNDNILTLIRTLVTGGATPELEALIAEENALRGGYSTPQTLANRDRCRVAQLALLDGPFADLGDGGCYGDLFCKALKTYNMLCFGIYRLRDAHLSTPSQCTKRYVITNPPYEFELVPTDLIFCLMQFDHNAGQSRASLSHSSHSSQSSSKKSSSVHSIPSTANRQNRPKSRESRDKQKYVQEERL
Chain of human Maxi K channel (BK channel), KCNMA1 (KCa1.1) and beta1 (KCNMB1) subunits (Q16558 whole entry partner): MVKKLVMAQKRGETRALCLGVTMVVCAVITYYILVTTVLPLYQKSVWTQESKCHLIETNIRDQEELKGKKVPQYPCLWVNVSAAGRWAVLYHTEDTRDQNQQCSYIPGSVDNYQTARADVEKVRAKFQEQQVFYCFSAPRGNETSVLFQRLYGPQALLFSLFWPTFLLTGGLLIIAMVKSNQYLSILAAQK
Chain of Caenorhabditis elegans slo-1a (Q95V25 whole entry): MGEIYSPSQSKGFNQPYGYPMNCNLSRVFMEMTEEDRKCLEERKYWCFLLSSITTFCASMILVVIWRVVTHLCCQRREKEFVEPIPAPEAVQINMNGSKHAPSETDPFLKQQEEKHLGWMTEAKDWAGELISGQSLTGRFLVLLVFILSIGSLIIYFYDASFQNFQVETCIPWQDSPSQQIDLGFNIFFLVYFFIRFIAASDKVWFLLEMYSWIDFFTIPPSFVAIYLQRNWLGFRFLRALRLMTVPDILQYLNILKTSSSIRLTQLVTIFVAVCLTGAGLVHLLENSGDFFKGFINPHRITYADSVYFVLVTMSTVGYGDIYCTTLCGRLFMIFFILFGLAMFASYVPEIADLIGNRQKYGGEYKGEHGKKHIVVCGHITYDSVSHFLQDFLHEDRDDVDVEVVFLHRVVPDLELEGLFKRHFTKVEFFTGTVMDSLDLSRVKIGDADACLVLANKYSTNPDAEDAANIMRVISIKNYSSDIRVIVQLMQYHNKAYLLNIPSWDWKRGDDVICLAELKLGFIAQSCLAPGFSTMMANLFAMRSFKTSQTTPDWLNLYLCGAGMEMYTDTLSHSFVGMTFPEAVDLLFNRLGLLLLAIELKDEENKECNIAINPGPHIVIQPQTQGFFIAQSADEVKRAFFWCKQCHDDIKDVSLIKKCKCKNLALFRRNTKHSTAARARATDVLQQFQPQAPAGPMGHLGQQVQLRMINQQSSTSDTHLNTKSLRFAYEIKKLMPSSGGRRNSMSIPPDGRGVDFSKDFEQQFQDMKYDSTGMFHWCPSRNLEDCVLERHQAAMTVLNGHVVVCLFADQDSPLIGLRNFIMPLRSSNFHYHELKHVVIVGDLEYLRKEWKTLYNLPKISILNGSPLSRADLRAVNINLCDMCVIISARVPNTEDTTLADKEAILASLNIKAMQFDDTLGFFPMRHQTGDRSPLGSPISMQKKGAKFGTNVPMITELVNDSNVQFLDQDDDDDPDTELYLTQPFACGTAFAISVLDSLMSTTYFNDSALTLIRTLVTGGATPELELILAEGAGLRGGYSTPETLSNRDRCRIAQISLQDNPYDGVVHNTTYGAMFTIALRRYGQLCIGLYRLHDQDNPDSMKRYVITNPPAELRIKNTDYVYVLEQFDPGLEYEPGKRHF

Row | SMILES | EC50 [1] [µM] | EC50 [2] [µM] | minimal effective concentration [3] [µM] | EC50 (D. immitis microfilaria) [µM] | EC50 (A. viteae microfilaria) [µM] | minimal effective concentration [4] [µM]
1 | CN(C)c1c(C(=O)N[C@H]2CCCc3ccccc32)cnc2c1ccn2-c1cccc(Cl)c1Cl [Compound 14, (S)-1-(2,3-dichlorophenyl)-4-(dimethylamino)-N-(1,2,3,4-tetrahydronaphthalen-1-yl)-1H-pyrrolo[2,3-b]pyridine-5-carboxamide] | 10 to 30 | < 1 | – | – | – | –
2 | CN(C)c1cccc(-n2ccc3c(N(C)C)c(C(=O)N[C@H]4CCOc5ccccc54)cnc32)c1 [Compound 30] | > 30 | < 1 | ≤ 50 | – | – | –
3 | O=C(N[C@H]1CCOc2ccccc21)c1cnc2c(ccn2-c2cc(Cl)cc(Cl)c2)c1O [Compound 51] | > 30 | – | – | < 10 | < 10 | –
4 | O=C(N[C@H]1CCCc2ccccc21)c1cnc2c(ccn2-c2cc(Cl)cc(Cl)c2)c1N1CCOCC1 [Compound 35] | > 30 | – | – | – | – | –
5 | CN(C)c1c(C(=O)N[C@H]2CCOc3ccccc32)cnc2c1ccn2-c1cc(Cl)cc(Cl)c1 [Compound 32] | > 30 | – | – | – | – | –
6 | O=C(NC1CCc2ccccc21)c1cnc2c(ccn2-c2cc(Cl)cc(Cl)c2)c1N1CCOCC1 (stereo not shown) [Compound 3] | > 30 | – | – | – | – | –
7 | CN(C)c1c(C(=O)NCc2ccccc2)cnc2c1ccn2-c1cccc(Cl)c1Cl [Compound 10] | > 30 | < 1 | – | – | – | –
8 | COc1c(C(=O)N[C@H]2CCc3ccccc32)cnc2c1ccn2-c1cc(Cl)cc(Cl)c1 [Compound 49] | > 30 | – | – | – | – | –
9 | Cc1cccc(-n2ccc3c(N(C)C)c(C(=O)N[C@H]4CCOc5ccccc54)cnc32)c1C [Compound 29] | > 30 | < 1 | – | – | – | –
10 | CN(C)c1c(C(=O)Nc2cccc3ccccc23)cnc2c1ccn2-c1cc(Cl)cc(Cl)c1 [Compound 41] | > 30 | – | – | – | < 10 | –
11 | CN(C)c1c(C(=O)N[C@H]2CCOc3ccccc32)cnc2c1ccn2-c1cccc(C(F)(F)F)c1 [Compound 28] | > 30 | < 1 | – | – | – | –
12 | CCOc1c(C(=O)N[C@H]2CCc3ccccc32)cnc2c1ccn2-c1cc(Cl)cc(Cl)c1 [Compound 44] | > 30 | – | – | – | – | –
13 | CN(C)c1c(C(=O)NC2CC(C)(C)Oc3ccccc32)cnc2c1ccn2-c1cc(Cl)cc(Cl)c1 (stereo not shown) [Compound 38] | 10 to 30 | < 10 | ≤ 50 | – | < 10 | –
14 | CC1(C)CC(NC(=O)c2cnc3c(ccn3-c3cc(Cl)cc(Cl)c3)c2N2CCOCC2)c2ccccc2O1 (stereo not shown) [Compound 39] | > 30 | – | ≤ 50 | – | < 10 | ≤ 50
15 | O=C(NC1CCc2ccccc21)c1cnc2c(ccn2-c2cccc(Cl)c2Cl)c1N1CCOCC1 (stereo not shown) [Compound 4] | > 30 | < 1 | – | – | – | –
16 | O=C(N[C@H]1CCc2ccccc21)c1cnc2c(ccn2-c2cc(Cl)cc(Cl)c2)c1N1CCOCC1 [Compound 37] | > 30 | – | ≤ 50 | < 10 | < 10 | ≤ 50
17 | COc1c(C(=O)Nc2cccc3ccccc23)cnc2c1ccn2-c1cc(Cl)cc(Cl)c1 [Compound 50] | > 30 | – | – | < 10 | – | –
18 | CN(C)c1c(C(=O)NC2CCOc3ccccc32)cnc2c1ccn2-c1cccc(Cl)c1Cl (stereo not shown) [Compound 6] | > 30 | < 1 | – | – | – | –
19 | CN(C)c1c(C(=O)N[C@H]2CCOc3ccccc32)cnc2c1ccn2-c1cccc(F)c1F [Compound 25] | > 30 | < 1 | – | – | – | –
20 | CCOc1c(C(=O)N[C@H]2CCOc3ccccc32)cnc2c1ccn2-c1cc(Cl)cc(Cl)c1 [Compound 43] | > 30 | – | – | < 10 | – | ≤ 50
21 | O=C(NCc1ccccc1)c1cnc2c(ccn2-c2cc(Cl)cc(Cl)c2)c1N1CCOCC1 [Compound 11] | > 30 | – | ≤ 50 | – | – | –
22 | CN(C)c1c(C(=O)N[C@@H]2CCc3ccccc32)cnc2c1ccn2-c1cccc(Cl)c1Cl [Compound 15] | > 30 | – | – | < 10 | – | –
23 | CCOc1c(C(=O)Nc2cccc3ccccc23)cnc2c1ccn2-c1cc(Cl)cc(Cl)c1 [Compound 46] | > 30 | – | – | – | – | –
24 | CN(C)c1c(C(=O)N[C@H]2CCCc3ccccc32)cnc2c1ccn2-c1cc(Cl)cc(Cl)c1 [Compound 34] | > 30 | < 10 | – | – | – | –

From patent US12479841B2, “Anthelmintic compounds comprising azaindoles structure” (Intervet Inc., priority 2019, dated 2025)
